Source: publication PMC10142505, “Synthesis, Evaluation of Enzyme Inhibition and Redox Properties of Potential Dual COX-2 and 5-LOX Inhibitors” (Pharmaceuticals, 2023)
Marks after values point to notes of the source that are not given here.

Test system: human serum pool
Assay: Redox activity (oxy score from TOS, PAB, TAS, SHG) in vitro in human serum pool
Settings: 37 °C, median (interquartile range); for Oxy score (OS), 2 h incubation, TBH added / Oxy score (OS), 24 h incubation, TBH added: with TBH added; for Oxy score (OS), 2 h incubation / Oxy score (OS), 24 h incubation: without TBH; for Oxy score (OS), 2 h incubation: average of five concentrations
Procedure: The remains of the serum samples were taken from healthy subjects after biochemical analysis; these subjects participated in regular medical examinations at the Military Medical Academy in Belgrade and consented to the formation of a serum pool. Neither the patients’ data nor their identities were used. Serum pool samples were prepared and aliquoted (450 µL portions) according to the routine procedure for in-house controle samples and preserved at the -80 °C until analysis. Five serial dilutions of the tested compounds (concentrations: 1000 µM, 500 µM, 250 µM, 125 µM and 62.5 µM) were added alone (50 µL) or in combination (25 µL) with oxidant TBH (25 µM) into 450 µL of serum. The compounds were dissolved in dimethyl sulfoxide (DMSO) for stock solution (1000 µM), while a PBS buffer (phosphate buffered saline) pH = 7.4 was used for serial dilutions (500 µM, 250 µM, 125 µM and 62.5 µM). Deionized water was used as a blank. DMSO and buffer pH = 7.4 were used as a control, while trolox solution (2 mmol/L) was used as a standard. All samples were incubated in duplicate for 2 h and 24 h at 37 °C.
Oxidative stress parameters (total antioxidative status (TAS), total oxidative status (TOS), total concentration of sulfhydryl group (SHG) and prooxidative–antioxidative balance (PAB)) were determined in order to calculate prooxidative score, antioxidative score and oxy score (OS). These parameters were determined in serum.
Total antioxidative status (TAS) was measured using Erel’s method, which was further optimized by Kotur-Stevuljevic et al. in 2015 [34]. ABTS (2,2-azino-bis(3-ethyl-benzthiazoline-6-sulfonic acid) is oxidized to a green-colored ABTS^+ cation by hydrogen peroxide in the acetate buffer (pH = 3.6). This stable cation is chromogen, and the presence of antioxidants in the samples causes its discoloration proportional to their concentrations. The absorbance was measured using a SPECTROstar Nano Microplate Reader (BMG Labtech, Ortenberg, Germany). The reaction was calibrated with Trolox and the TAS values are expressed as mmol trolox equivalent/L.
Total oxidative status (TOS) was measured using Erel’s method. Here, a ferrous ion-o-dianisidine complex is oxidized to ferric ion by the oxidants present in the sample. The ferric ion forms a colored complex with xylenol orange in an acidic environment and in the presence of glycerol. The intensity of the color of the formed complex is proportional to the total contents of oxidants in the sample. The absorbance was measured at 560 nm using a SPECTROstar Nano Microplate Reader (BMG Labtech, Ortenberg, Germany). The reaction was calibrated with hydrogen peroxide and the TOS values are expressed as µmol H2O2 equivalent/L.
Prooxidant–antioxidant balance (PAB) was measured according to procedures in the literature. Here, hydrogen peroxide is determined in the presence of antioxidants in the sample. Both of them (hydrogen peroxide and antioxidants (including uric acid)) react with chromogen TMB (3,3′,5,5′-tetramethylbenzidine) simultaneously. The hydrogen peroxide and chromogen reaction is enzymatically catalyzed with peroxidase, while the antioxidants–chromogen reaction is non-enzymatic. The intense blue color, produced as a result of the reaction between hydrogen peroxide and TMB, is decolorized by the reaction of the antioxidant with the TMB. The resulting color (result of two competitive reactions) is proportional to the ratio of antioxidants to prooxidants. The absorbance was measured at 450 nm. Different ratios of hydrogen peroxide and uric acid solutions were used to make a standard curve. The PAB results are expressed in hydrogen peroxide concentrations.
Total Sulfydryl Groups Content (SHG) was measured using a modified version of Ellman’s method. This method is based on the reaction between DTNB ([…]) and aliphatic thiol compounds in an alkaline environment (pH = 9.0). […]

With COc1ccc2c(c1)c(CNC(=O)NO)c(C)n2C(=O)c1ccc(Cl)cc1 [Compound 1, N’-hydroxy-N-[(1-(4-chlorobenzoyl)-5-methoxy-2-methyl-3-indolyl)methyl]urea] the “Oxy score (OS), 2 h incubation, TBH added” value was 6.44 (5.51–7.02), the “Oxy score (OS), 2 h incubation” value was −0.43 (−1.27–3.13) and the “Oxy score (OS), 24 h incubation, TBH added” value was 5.46 (4.96–6.20). The “Oxy score (OS), 24 h incubation” value was 0.71 (0.51–0.80).

For CC(NC(=O)NO)c1ccc(-c2ccccc2)c(F)c1 (centres unmarked) [Compound 2], the “Oxy score (OS), 2 h incubation, TBH added” value was 5.20 (3.70–5.42), the “Oxy score (OS), 2 h incubation” value was 3.28 (−0.68–16.66) and the “Oxy score (OS), 24 h incubation, TBH added” value was 6.79 (4.37–7.90). The “Oxy score (OS), 24 h incubation” value was 0.33 (−0.07–0.85).

With O=C(NO)NCc1ccccc1Nc1c(Cl)cccc1Cl [Compound 3, N’-hydroxy-N-[(2-(2,6-dichloroanilino)phenyl)methyl]urea] the “Oxy score (OS), 2 h incubation, TBH added” value was 5.81 (4.64–7.25), the “Oxy score (OS), 2 h incubation” value was 1.58 (−0.38–3.45) and the “Oxy score (OS), 24 h incubation, TBH added” value was 1.93 (0.65–5.02) ^#. The “Oxy score (OS), 24 h incubation” value was 1.31 (−0.31–1.75).

In the case of COC(=O)C(Cc1c[nH]cn1)NC(=O)c1cc(C(C)(C)C)c(O)c(C(C)(C)C)c1 (centres unmarked) [Compound 4, 2-(3,5-di-tert-butyl-4-hydroxy-benzoylamino)-3-(1H-imidazol-4-yl)-propionic acid methyl ester], the “Oxy score (OS), 2 h incubation, TBH added” value is reported as 3.68 (3.36–8.40), the “Oxy score (OS), 2 h incubation” value is reported as 0.24 (−0.24–0.89) and the “Oxy score (OS), 24 h incubation, TBH added” value is reported as 7.86 (7.20–10.68). For the same compound, the “Oxy score (OS), 24 h incubation” value was 3.00 (1.99–3.93) **.

COC(=O)CNC(=O)c1cc(C(C)(C)C)c(O)c(C(C)(C)C)c1 [Compound 5, (3,5-di-tert-butyl-4-hydroxy-benzoylamino)-acetic acid methyl ester] was tested, and the “Oxy score (OS), 2 h incubation, TBH added” value was 2.83 (2.55–3.39), the “Oxy score (OS), 2 h incubation” value was 0.29 (−0.30–1.23) and the “Oxy score (OS), 24 h incubation, TBH added” value was 5.64 (5.07–6.47). The “Oxy score (OS), 24 h incubation” value was 2.14 (1.37–2.62) **.

For C=CCNC(=O)c1cc(C(C)(C)C)c(O)c(C(C)(C)C)c1 [Compound 6, N-allyl-3,5-di-tert-butyl-4-hydroxy-benzamide], the “Oxy score (OS), 2 h incubation, TBH added” value was 3.77 (3.37–4.20), the “Oxy score (OS), 2 h incubation” value was 0.52 (0.08–1.52) and the “Oxy score (OS), 24 h incubation, TBH added” value was 6.07 (4.34–7.02). The “Oxy score (OS), 24 h incubation” value was 3.09 (2.50–3.67).

In the case of C#CCNC(=O)c1cc(C(C)(C)C)c(O)c(C(C)(C)C)c1 [Compound 7, 3,5-di-tert-butyl-4-hydroxy-N-prop-2-ynyl-benzamide], the “Oxy score (OS), 2 h incubation, TBH added” value is reported as 6.62 (6.42–6.98), the “Oxy score (OS), 2 h incubation” value is reported as 3.12 (2.21–3.47) and the “Oxy score (OS), 24 h incubation, TBH added” value is reported as 10.54 (4.45–27.42). For the same compound, the “Oxy score (OS), 24 h incubation” value was 2.55 (2.18–2.92).

With CCOc1ccccc1NC(=O)N(C)C [Compound 8, 3-(2-ethoxy-phenyl)-1,1-dimethyl-urea] the “Oxy score (OS), 2 h incubation, TBH added” value was 8.43 (5.76–13.81), the “Oxy score (OS), 2 h incubation” value was 0.03 (−0.96–1.46) and the “Oxy score (OS), 24 h incubation, TBH added” value was −0.55 (−0.67–1.48) ^##. For the same compound, the “Oxy score (OS), 24 h incubation” value was −0.52 (−1.24–3.03).

CN(C)C(=O)Nc1ccccc1C(=O)O [Compound 9, 2-(3,3-dimethyl-ureido)-benzoic acid] was tested, and the “Oxy score (OS), 2 h incubation, TBH added” value was 5.97 (4.06–8.25), the “Oxy score (OS), 2 h incubation” value was 0.09 (−0.79–1.80) and the “Oxy score (OS), 24 h incubation, TBH added” value was −0.19 (−0.68–1.56). For the same compound, the “Oxy score (OS), 24 h incubation” value was −0.18 (−1.55–2.91).

With CCOc1ccccc1NC(=O)Nc1ccc([N+](=O)[O-])cc1 [Compound 10, 1-(2-ethoxy-phenyl)-3-(4-nitro-phenyl)-urea] the “Oxy score (OS), 2 h incubation, TBH added” value was 6.34 (5.07–22.02), the “Oxy score (OS), 24 h incubation, TBH added” value was 0.97 (−0.04–4.08) and the “Oxy score (OS), 24 h incubation” value was −0.97 (−1.53–3.85).

For CC(=O)N(O)C(C)c1ccc(CC(C)C)cc1 (centres unmarked) [Compound 11], the “Oxy score (OS), 2 h incubation, TBH added” value was 5.15 (4.76–6.74), the “Oxy score (OS), 2 h incubation” value was −0.22 (−0.65–0.82) and the “Oxy score (OS), 24 h incubation, TBH added” value was 3.18 (2.92–3.60) ^##. The “Oxy score (OS), 24 h incubation” value was 1.83 (1.49–2.18) *.

For COc1ccc2cc(C(C)N(O)C(C)=O)ccc2c1 (centres unmarked) [Compound 12, N-hydroxy-N-[1-(6-methoxy-naphthalen-2-yl)-ethyl]-acetamide], the “Oxy score (OS), 2 h incubation, TBH added” value was 4.79 (4.25–5.43), the “Oxy score (OS), 2 h incubation” value was 0.24 (−0.06–0.58) and the “Oxy score (OS), 24 h incubation, TBH added” value was 3.97 (3.44–6.33). For the same compound, the “Oxy score (OS), 24 h incubation” value was 2.49 (2.03–2.66) **.

For CC(C)(C)c1cc(C=C2SC(=S)N(N)C2=O)cc(C(C)(C)C)c1O [Compound 13, 3-amino-5-(3,5-di-tert-butyl-4-hydroxy-benzylidene)-2-thioxo-thiazolidin-4-one], the “Oxy score (OS), 2 h incubation, TBH added” value was 5.89 (5.63–6.14), the “Oxy score (OS), 2 h incubation” value was 0.75 (0.56–0.94) and the “Oxy score (OS), 24 h incubation” value was 0.64 (0.19–1.01).
